Values after ≈ are worked out from the molar mass of the structure shown.
System: Clostridium perfringens

Row | SMILES | MIC [µg/mL]
1 | CS(=O)(=O)c1ccc([C@@H](O)[C@@H](CF)NC(=O)C(Cl)Cl)cc1 [FLORFENICOL] | 16 (≈ 44.7 µM)
2 | CC(=O)NC[C@H]1CN(c2ccc(N3CCOCC3)c(F)c2)C(=O)O1 [LINEZOLID] | 64 (≈ 190 µM)
